Experimental data: patent publication US11046651B2, “Piperazine substituted azapine derivatives and uses thereof” (Alairion, Inc., priority 2019, dated 2021)
Values joined by “and” are separate entries in the source; they are usually repeats but may differ in a detail not shown here. Equal entries are not always repeated.

Assays:
D2 = D2 (Homo sapiens (Human), UniProt P14416); experiment: D2 binding assay ([3H] 7-OH-DPAT, HEK293 D2L membranes); details: numeric values
Protocol: D2 Binding Assay Protocol
The testing compounds were diluted with DMSO, starting at 2 mM, with 8-points and 5-fold serial dilutions. droperidol was diluted with DMSO, starting at 0.2 mM, with 8-points and 4-fold serial dilutions.
1 μL of a compound of the present disclosure and the reference compound (Table O) was transferred to an assay plate. 1 μL of droperidol was transferred to an assay plate according to the plate map for nonspecific binding (Low control: LC). 1 μL of DMSO was transferred to an assay plate according to the plate map for total binding (High control: HC). Following a plate map, 100 μL of the membrane stock solutions and radio ligand were added into the plate. The plates were sealed and shaken with 300 rpm.
(§1) Unifilter-96 GF/C filter plates were soaked with 50 μL of 0.3% PEI per well for about 0.5 hours at room temperature. When the binding assays were complete, the reaction mixture was filtered through the GF/B filter plates using Perkin Elmer Filtermate Harvester, and each plate was washed 4 times with cold wash buffer. The filter plates were dried for 1 hour at 50° C. After drying, the bottom of the filter plate wells were sealed using Perkin Elmer Unifilter-96 backing seal tape. 50 μL of Perkin Elmer Microscint 20 cocktail was added. The top of the filter plates were sealed with Perkin Elmer TopSeal-A sealing film.
^3H trapped on filters were counted using Perkin Elmer MicroBeta2 Reader. Inhibition constants were calculated using the following equation: […]
The data was analyzed using Prism 5. The model used was “log(inhibitor) vs. response—Variable slope” to fit the data and calculate IC50. The IC50 was then converted to Ki using the following equation: Ki=IC50/(1+L/Kd), wherein L is the radioligand concentration in the reaction system; Kd is the affinity of radioligand to the receptor. As shown in Table Q Compound No. 7 has a lower affinity for D2 when compared to Compounds A-2, A-3, A-4, and A-5.

5-HT2C = 5-HT2C (Homo sapiens (Human), UniProt P28335); experiment: 5-HT2C binding assay ([3H]-Mesulergine, HEK293 membranes)
5-HT2C, sequence (P28335 33-458): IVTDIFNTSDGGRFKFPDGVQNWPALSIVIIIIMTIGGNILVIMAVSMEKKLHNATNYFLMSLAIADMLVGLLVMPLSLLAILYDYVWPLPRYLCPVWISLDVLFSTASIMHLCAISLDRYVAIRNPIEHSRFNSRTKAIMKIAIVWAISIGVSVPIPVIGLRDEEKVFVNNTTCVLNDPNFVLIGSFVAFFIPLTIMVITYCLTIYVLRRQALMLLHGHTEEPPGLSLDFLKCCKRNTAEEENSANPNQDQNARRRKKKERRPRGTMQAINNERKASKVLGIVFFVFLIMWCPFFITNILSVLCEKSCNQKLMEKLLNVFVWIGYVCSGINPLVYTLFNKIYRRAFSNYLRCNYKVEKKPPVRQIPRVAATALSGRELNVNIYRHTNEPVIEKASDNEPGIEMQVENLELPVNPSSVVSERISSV
Protocol: 5-HT2C Binding Assay Protocol
The testing compounds were diluted with DMSO, starting at 2 mM, with 8-points and 5-fold serial dilutions.
1 μL of a compound of the present disclosure the reference compound (Table J) was transferred to an assay plate. […] 1 μL of DMSO was transferred to an assay plate according to the plate map for total binding (High control: HC).
as §1, with “GF/C” for “GF/B”
(§2) ^3H trapped on filters were counted using Perkin Elmer MicroBeta2 Reader. Inhibition constants were calculated using the following equation:
[formula] The data was analyzed using Prism 5. The model used was “log(inhibitor) vs. response—Variable slope” to fit the data and calculate IC50. The IC50 was then converted to Ki using the following equation: Ki=IC50/(1+L/Kd), wherein L is the radioligand concentration in the reaction system; Kd is the affinity of radioligand to the receptor.

5-HT2A = 5-HT2A (Homo sapiens (Human), UniProt P28223); experiment: 5-HT2A binding assay ([3H]-Ketanserin, HEK293 stable cell line membranes)
5-HT2A, sequence (P28223 whole entry, species assumed): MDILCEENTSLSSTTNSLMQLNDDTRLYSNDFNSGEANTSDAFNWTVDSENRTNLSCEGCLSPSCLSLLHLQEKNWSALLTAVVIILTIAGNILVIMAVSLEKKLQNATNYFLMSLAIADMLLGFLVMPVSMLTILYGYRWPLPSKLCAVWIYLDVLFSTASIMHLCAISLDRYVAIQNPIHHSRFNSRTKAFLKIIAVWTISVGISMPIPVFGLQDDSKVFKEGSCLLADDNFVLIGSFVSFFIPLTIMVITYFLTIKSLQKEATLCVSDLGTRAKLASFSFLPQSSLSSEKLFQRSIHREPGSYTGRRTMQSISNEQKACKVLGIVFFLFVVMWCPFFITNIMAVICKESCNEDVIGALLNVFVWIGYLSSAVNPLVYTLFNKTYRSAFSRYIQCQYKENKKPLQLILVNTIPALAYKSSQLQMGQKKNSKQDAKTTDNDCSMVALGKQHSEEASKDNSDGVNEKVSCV
Protocol: H1 and 5-HT2A Binding Assay Protocol
(§3) The testing compounds were diluted with DMSO, starting at 2 mM, with 8-points and 5-fold serial dilutions. Ketanserin and Pyrilamine were diluted with DMSO, starting at 0.2 mM, with 8-points and 5-fold serial dilution.
(§4) 1 μl of a compounds of the present disclosure and either reference compound (Table C) were transferred to assay plates. 1 μl of 0.2 mM Ketanserin or Pyrilamine was transferred to an assay plate according to the plate map for nonspecific binding (Low control: LC). 1 μl of DMSO was transferred to an assay plate according to plate map for total binding (High control: HC).
(§5) 100 μlof membrane stocks were dispensed into the plates, following the plate map. 100 of radio ligand was added. The plates were sealed and shaken at 300 rpm at room temperature for 1 hour. The Unifilter-96 GF/C filter plates were soaked with 50 of 0.3% PEI per well for at least 0.5 hour at room temperature.
as §1, with “When” for “Unifilter-96 GF/C filter plates were soaked with 50 μL of 0.3% PEI per well for about 0.5 hours at room temperature. When”, “GF/C” for “the GF/B filter”, “and then” for “and”, “50 degrees.” for “50° C.”, “μl” for “μL”
as §2
(§6) [formula] The data was analyzed using Prism 5. The model used was “log(inhibitor) vs. response—Variable slope” to fit the data and calculate IC50. The IC50 was then converted to Ki using following equation: Ki=IC50/(1+L/Kd). L is the radioligand concentration in the reaction system; Kd is the affinity of radioligand to the receptor.

[1] = Human clearance and half-life projections (allometric scaling from monkey clearance); details: for T1/2 (h), projected human half-life: one-compartmental model, T1/2=0.693×(predicted Vd/predicted CL); for CL (mL/min/kg), projected human clearance: single species scaling from monkey clearance
Protocol: (§7) The biological activity of the compounds of the present disclosure may be determined utilizing projected human clearance (CL) and half-life in humans. An allometric scaling method, using a single species scaling from monkey clearance was used to project clearance. Human volume of distribution (Vd) was projected from animal Vd, adjusted for differences in plasma protein binding and assuming similar unbound Vd across species. Human half-life (T1/2) was calculated based on a one-compartmental model, using a relationship of T1/2=0.693×(predicted Vd/predicted CL).
as §7, with “An” for “The biological activity of the compounds of the present disclosure may be determined utilizing projected human clearance (CL) and half-life in humans. An”

H1 = H1 (Homo sapiens (Human), UniProt P35367); experiment: H1 binding assay ([3H]pyrilamine, HEK293 stable cell line membranes)
H1, sequence (P35367 whole entry): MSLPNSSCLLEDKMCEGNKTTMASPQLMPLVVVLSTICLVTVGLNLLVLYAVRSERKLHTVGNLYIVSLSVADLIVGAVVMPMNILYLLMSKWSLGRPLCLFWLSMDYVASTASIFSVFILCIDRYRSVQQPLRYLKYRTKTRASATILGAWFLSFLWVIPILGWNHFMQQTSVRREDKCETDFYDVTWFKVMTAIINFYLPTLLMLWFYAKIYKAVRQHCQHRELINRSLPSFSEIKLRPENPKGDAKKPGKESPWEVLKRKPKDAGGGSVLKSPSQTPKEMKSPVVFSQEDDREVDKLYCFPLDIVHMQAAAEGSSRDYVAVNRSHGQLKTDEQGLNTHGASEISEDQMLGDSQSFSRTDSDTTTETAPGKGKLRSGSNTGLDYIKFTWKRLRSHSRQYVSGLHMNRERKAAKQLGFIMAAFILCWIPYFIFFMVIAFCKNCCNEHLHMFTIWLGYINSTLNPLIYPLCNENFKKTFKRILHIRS
Protocol: Example 25. H1 and 5-HT2A Binding Assay Protocol
as §3, §4, §5
as §1, with “When” for “Unifilter-96 GF/C filter plates were soaked with 50 μL of 0.3% PEI per well for about 0.5 hours at room temperature. When”, “GF/C” for “the GF/B filter”, “and then” for “and”, “50 degrees.” for “50° C.”, “μl” for “μL”
as §2, §6

male Wistar rats = experiment: SCORE EEG/EMG sleep-wake monitoring: sleep continuity, number of arousals, depth of sleep; type: in vivo, rat; details: for normalized EEG delta power (slow wave activity) during nonREM sleep / increase in sleep bout-length per hour relative to vehicle control / cumulative increase in Total Sleep Time (NREM+REM sleep) relative to baseline: CT-18, male Wistar rats; for reductions in the number of transitions from sleep to wake per hour relative to controls: CT-5, male Wistar rats; for cumulative increase in Total Sleep Time (NREM+REM sleep) relative to baseline: 30 hours post-treatment
Protocol: Example 30. Experimental Details and Methods for Determining Sleep Continuity, Number of Arousals, and Depth of Sleep
Treatment detail plots (see, e.g., FIGS. 1-10) depict pre- and post-treatment time series plot ±30 hours before and after treatment at CT-18 (6-hours after lights-off) or pre- and post-treatment time series plots 29 hr before and 31 hr after treatments at CT-5 (5-hours after lights-on). Treatment occurred at the beginning of the hour marked by a triangle on the abscissa of the plot. Variables were computed in hourly bins.
All data were plotted as group mean±SEM (see, e.g., FIGS. 1-10). The gray shaded area encompasses the vehicle treatment mean±SEM. Along the x-axis, time of treatment is marked by a triangle unless noted otherwise. Along the x-axis, light/dark bars indicate lights on/off.
Adult, male Wistar rats (approximately 270 g at time of surgery, Charles River Laboratories) were administered dexmedetomidine 25 μg/kg and anesthetized (2% isoflourane in 95/5 oxygen, to effect) and surgically prepared with a cranial implant that permitted chronic electro-encephalogram (EEG) and electromyogram (EMG) recording. Body temperature and locomotor activity were monitored via a miniature transmitter (Minimitter Series PDT4000 E-Mitter, Bend, Oreg.) surgically placed in the abdomen during the same anesthetic event when the cranial portion was implanted. The cranial implant consisted of miniature stainless steel screws (2 frontal [+3.9 AP from bregma, 2.0 ML], 2 occipital [−6.4 AP, 5.5 ML], and 1 ground placed sagittaly and posterior to lambda) for EEG recording. Two Teflon-coated multi-strand stainless steel wires were positioned under the nuchal trapezoid muscles for EMG recording. All leads were soldered to a miniature connector (Omnetics, Minneapolis, Minn.) and gas sterilized with ethylene oxide prior to surgery. The implant assembly was affixed to the skull by the combination of the EEG recording screws, cyanoacrylate applied between the hermetically sealed implant connector and skull, and a UV-curing dental acrylic. An analgesic (meloxicam 1 mg/kg IP) was administered 1 day prior to surgery and daily for 2 days post-surgery. Neosporin with lidocaine was applied topically to the peri-implant margin. At least three weeks were allowed for surgical recovery prior to any data collection.
Rats were housed individually within specially modified Innovive® cages equipped with a custom-built ultra-low-torque slip-ring commutator and a customized Innovive® polycarbonate cage-top. These cages were located on shelves of a modified stainless steel animal rack that was pre-wired for physiological and behavioral data collection. Food and water were available ad libitum and the ambient temperature was 22±1° C. A 24-hr light-dark cycle (LD 12:12) was maintained throughout the study using LED lighting strips. Light intensity averaged 35 lux at mid-level inside the cage. Relative humidity averaged 50% approximately. Animals were undisturbed for two days before and after each treatment.
Sleep and wakefulness were determined using SCORE™—a Linux and Windows-10 real-time computer-based sleep-wake and physiological monitoring system. Validation of the SCORE™ sleep stage identification algorithm in rodents and the system's utility in pre-clinical drug discovery and evaluation have been previously described (Edgar et al. Psychopharmacology 1991, 105, 374; Gilmour et al., Neuropharmacology 2012, 64, 224; McCarthy et al., 2016, Neuropharmacology 108, 415; Olive et al., J. Pharmacology &Experimental Therapeutics 1998 285, 1073; Phillips et al, Neuropharmacology 2012, 62, 1359; Seidel et al. J Pharmacology &Experimental Therapeutics 1995, 275, 263; Van Gelder et al. Sleep 1991, 14, 48). […]

D2, sequence (P14416 whole entry): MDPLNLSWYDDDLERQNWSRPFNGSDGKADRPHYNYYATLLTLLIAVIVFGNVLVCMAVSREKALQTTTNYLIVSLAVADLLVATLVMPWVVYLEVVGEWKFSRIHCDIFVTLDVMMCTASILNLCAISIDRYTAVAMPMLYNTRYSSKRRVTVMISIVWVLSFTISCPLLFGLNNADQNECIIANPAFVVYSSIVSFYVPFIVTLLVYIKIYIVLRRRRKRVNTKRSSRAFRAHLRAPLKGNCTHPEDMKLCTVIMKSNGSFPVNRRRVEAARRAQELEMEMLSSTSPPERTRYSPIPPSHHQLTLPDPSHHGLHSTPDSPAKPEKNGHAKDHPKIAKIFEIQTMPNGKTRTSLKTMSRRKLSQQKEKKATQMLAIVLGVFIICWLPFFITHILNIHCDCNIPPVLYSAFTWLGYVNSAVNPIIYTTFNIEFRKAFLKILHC

Cc1ccc2c(c1)N=C(N1CCN(CC(C)(C)C(=O)O)CC1)c1cc(C)ccc1O2 [A-2, 3-(4-(2,8-dimethyldibenzo[b,f][1,4]oxazepin-11-yl)piperazin-1-yl)-2,2-dimethylpropanoic acid, reference compound]
Ki (D2): 60 nM
Ki (5-HT2C; numeric values): 265 nM

Cc1ccc2c(c1)Oc1ccc(C)cc1C(N1CCN(CC(C)(C)C(=O)O)CC1)=N2 [A-3, 3-(4-(2,7-dimethyldibenzo[b,f][1,4]oxazepin-11-yl)piperazin-1-yl)-2,2-dimethylpropanoic acid, reference compound]
Ki (D2): 152 nM
Ki (5-HT2C; numeric values): 125 nM

Cc1ccc2c(c1)N=C(N1CCN(CC(C)(C)C(=O)O)CC1)c1ccc(C)cc1O2 [A-4, 3-(4-(3,8-dimethyldibenzo[b,f][1,4]oxazepin-11-yl)piperazin-1-yl)-2,2-dimethylpropanoic acid, reference compound]
Ki (D2): 1900 nM
Ki (5-HT2C; numeric values): 772 nM

Cc1ccc2c(c1)Oc1cc(F)ccc1N=C2N1CCN(CC(C)(C)C(=O)O)CC1 [Compound No. 6, 3-(4-(7-fluoro-3-methyldibenzo[b,f][1,4]oxazepin-11-yl)piperazin-1-yl)-2,2-dimethylpropanoic acid]
Ki (5-HT2A; Table F, class symbols): 1 to 25 nM
T1/2 (h), projected human half-life [1]: 12 to 25 h
CL (mL/min/kg), projected human clearance [1]: 0.3 mL/min/kg
Ki (H1; Table E, class symbols): 1 to 25 nM
Ki (5-HT2C; Table L, class symbols): > 500 nM

CC(C)(CN1CCN(C2=Nc3ccccc3Cc3ccccc32)CC1)C(=O)O [Compound No. 8, 3-(4-(11H-dibenzo[b,e]azepin-6-yl)piperazin-1-yl)-2,2-dimethylpropanoic acid]
Ki (5-HT2A; Table F, class symbols): > 50 nM
Ki (5-HT2A; numeric values): ~87 nM and 87 nM
T1/2 (h), projected human half-life [1]: 2 to 4 h
CL (mL/min/kg), projected human clearance [1]: 1.8 mL/min/kg
Ki (H1; Table E, class symbols): 25 to 50 nM
Ki (H1; numeric values): 46 nM
normalized EEG delta power (slow wave activity) during nonREM sleep (male Wistar rats; 3 mg/kg PO): increases in EEG slow wave activity in nonREM sleep
reductions in the number of transitions from sleep to wake per hour relative to controls (male Wistar rats; 10 mg/kg PO): up to 50%
increase in sleep bout-length per hour relative to vehicle control (male Wistar rats; 10 mg/kg PO): approximately 4 fold
cumulative increase in Total Sleep Time (NREM+REM sleep) relative to baseline (male Wistar rats; 30 mg/kg PO, listed as Compound 8): 70 min
cumulative increase in Total Sleep Time (NREM+REM sleep) relative to baseline (male Wistar rats; 30 mg/kg PO, listed as compound 8): approximately 70 minute
Ki (5-HT2C; Table L, class symbols): > 500 nM

Cc1ccc2c(c1)Oc1cc(C(F)F)ccc1C(N1CCN(CC(C)(C)C(=O)O)CC1)=N2 [Compound No. 15, 3-(4-(3-(difluoromethyl)-7-methyldibenzo[b,f][1,4]oxazepin-11-yl)piperazin-1-yl)-2,2-dimethylpropanoic acid]
Ki (5-HT2A; Table F, class symbols): 1 to 25 nM
Ki (H1; Table E, class symbols): > 50 nM
reductions in the number of transitions from sleep to wake per hour relative to controls (male Wistar rats; 30 mg/kg PO): approximately 30%
increase in sleep bout-length per hour relative to vehicle control (male Wistar rats; 30 mg/kg PO): approximately 3 fold
normalized EEG delta power (slow wave activity) during nonREM sleep (male Wistar rats; 30 mg/kg PO): increases in EEG slow wave activity in nonREM sleep

CC(C)(CN1CCN(C2=Nc3ccccc3Oc3cc(C(F)F)ccc32)CC1)C(=O)O [Compound No. 36, 3-(4-(3-(difluoromethyl)dibenzo[b,f][1,4]oxazepin-11-yl)piperazin-1-yl)-2,2-dimethylpropanoic acid]
T1/2 (h), projected human half-life [1]: 14 to 50 h
CL (mL/min/kg), projected human clearance [1]: 0.4 mL/min/kg

CC(C)(CN1CCN(C2=Nc3ccccc3Oc3cccc(F)c32)CC1)C(=O)O [Compound No. 39, 3-(4-(1-fluorodibenzo[b,f][1,4]oxazepin-11-yl)piperazin-1-yl)-2,2-dimethylpropanoic acid]
Ki (5-HT2A; Table F, class symbols): > 50 nM
Ki (H1; Table E, class symbols): > 50 nM
Ki (5-HT2C; Table L, class symbols): < 100 nM
